Measured values reported in US20240082273A1, “NEUROKININ INHIBITORS SUCH AS APREPITANT FOR TREATING NON SMALL CELL LUNG CARCINOMA OR BREAST CANCER WITHOUT MUTATIONS” (priority 2020, published 2024).

Experiments:
[1] = Xenograft mouse safety model (body weight, autopsy); assay type: in vivo, C57BL/6J mice
Description: Fosaprepitant dimeglumine salt (CAS No 265121-04-8) was purchased from Selleck Chemicals and administered intraperitoneally at 30, 60 and 100 mg/kg dose, once a day. Fosaprepitant is a pro-drug available for parenteral administration that in the body, once administered, becomes aprepitant.
3LL cells (0.6×10^6 per mouse) or B16F10 cells (1×10^6 per mouse) were subcutaneously injected into the right flank of C57BL/6J mice (Charles River) with matrigel (Matrigel Membrane Matrix, Corning) at 50% v/v. Tumour growth was evaluated every 2/3 days. Animal vital parameters were monitored daily. When the tumours reached an average volume of 100-150 mm ^3, mice were randomized into cohorts of 6 animals each and treatments were administered for 7-9 days. Groups and regimens for each experiment are described in Table 1. Animals of the control group were dosed with equal volume of vehicle. Animals were euthanized according to institutional guidelines and tumour samples were excised. Tumours were snap-frozen in OCT medium (Sakura Tissue Tek) or fixed in PFA and embedded in paraffin. Several internal organs were also excised and fixed in PFA for future studies.

[2] = test system: lung cancer cell lines with molecular profile EGFR−/ALK−/ROS1− (A549, H358, H441, H460, H520); experiment: MTT proliferation, NSCLC cell lines with EGFR−/ALK−/ROS1− profile; assay type: cell-based, human; details: for Mean proliferation: 48 hours
Source text: (§1) EGFR, ALK and ROS1 are key molecular factors that may be used to determine pathological classification, prognosis, therapeutics and behaviour in patients with lung cancer. EGFR, ALK and ROS1 are biomarkers routinely analysed in the clinical practice of the management of patients with NSCLC. NSCLC with molecular profile EGFR-/ALK-/ROS1- presents a better response to treatment with the NK1 inhibitor aprepitant, compared to lung cancer with different profiles (in particular, EGFR+/ALK-/ROS1- and EGFR-/ALK+/ROS1-, in which EGFR and ALK respectively contain mutations relative to their wild type gene). Commercial lines of lung cancer were used as shown in Table 2 together with their molecular profile. The molecular profile of the cancer cell lines was determined by sequencing and can be consulted in the Cancer Cell Line Encyclopaedia database of public access available at the url: https://portals.broadinstitute.org/ccle All cells were cultured in wells under vendor-recommended conditions and exposed to different concentrations of aprepitant for 48 hours. In each case a group of wells of cells were used to which no treatment was applied and which were considered as controls. At 48 hours the number of cells was measured. Eight cell lines of human were used for the study of NK1 inhibitors (Table 3). All of them were maintained in culture in their respective culture media (Gibco,Thermo Fisher Scientific) supplemented with 10% foetal bovine serum (FBS) (Gibco, Thermo Fisher Scientific), 2 mM L-Glutamine (Gln) (Sigma-Aldrich, Merk), and […] and […] Gibco, Thermo Fisher Scientific) in a humidified incubator at 37° C. and 5% CO2. Cell culture media used are Dulbecco's Modified Eagle Medium (DMEM), and RPMI Medium 1640 (RPMI-1640). To measure cell viability, the cytotoxicity of drugs in culture was evaluated using the 3-(4,5-Dimethyl-2-thiazolyl)-2,5-diphenyl-2H-tetrazolium bromide (MTT) reduction assay. This assay assesses cell viability through the indirect measurement of the activity of reductases that convert yellow soluble MTT into purple insoluble formazan salts. As MTT can only be reduced when these enzymes are active, the reaction is used as an indicator of the cell metabolic competence and, therefore, of viability. A variable number of cells (depending on the cell line) were seeded in 96 multi-well plates and grown during 24 hours. The following day, the culture medium was aspirated and fresh culture medium with the drug dissolved was added to the wells. After 24 hours or 48 hours cell viability was measurement by adding 10 μl of a 5 mg/ml MTT solution (M5655; Sigma-Aldrich) and 100 μl of HCl 0.01M-SDS 10% solution 4 hours later. After 24 hours, the absorbance was measured at 595 nm, using a multi-well plate reader (iMark, Bio-rad). Each condition was tested 5 times, obtaining 5 values of absorbance. All sample measurements were corrected using the blank (culture medium without cells) mean absorbance value, and normalized to positive control to determinate relative cell viability for each condition at 24 and 48 hours.

[3] = test system: lung cancer cell line with molecular profile EGFR+/ALK−/ROS1− (HCC4006); experiment: MTT proliferation, NSCLC cell line with EGFR+/ALK−/ROS1− profile; assay type: cell-based, human; details: 48 hours
Source text: as §1

[4] = test system: human primary triple negative breast carcinoma (ER−/PR−/HER2−) tumour cells; experiment: Primary triple negative breast carcinoma xenograft mouse model; assay type: in vivo, nu/nu Balb/c nude mice; details: for Mean proliferation: 28 days
Description: Immunocompromised female mice, 5-6 weeks of age were used, nu/nu Balb/c nude mice, provided by Harlan Iberica Barcelona (Spain). They were kept at 24° C. and in sterile conditions with food and water “ad libitum”. They were injected with 2×10^7 tumour cells, corresponding to human primary triple negative breast carcinoma (i.e. tumour cells having a ER−/PR−/HER2− molecular profile) in 200 μl of PBS subcutaneous route. The tumour size was measured and the mice were evaluated for their state of health and weight daily. The mice were randomised in groups when the tumours reached a volume of 75 mm^3. One of the groups was treated with 200 μl of placebo (control group) and the eight remaining groups with doses of 1 to 100 mg per kilogram of weight and day of the NK1 inhibitor aprepitant. Five animals were treated per group, during 28 days. All the mice were sacrificed at the end of the experiment.

[5] = daily dosing from 625 to 875 mg; cited from earlier work

Compound: C[C@@H](O[C@H]1OCCN(Cc2nc(=O)[nH][nH]2)[C@H]1c1ccc(F)cc1)c1cc(C(F)(F)F)cc(C(F)(F)F)c1 [Aprepitant]
- autopsy, organs explored microscopically: signs of toxicity ([1]; all animals, 30, 60 and 100 mg/kg/day): no significant signs of toxicity
- safety (body weight, histological study of the main organs) ([1]; mouse, in vivo, 100 mg/kg/day): safe
- inhibition at 5 µM ([2]; Homo sapiens, concentration of 5 μM, in most cell lines (FIG. 3)): ~20%
- inhibition at 20 µM ([2]; Homo sapiens, concentration of 20 μM (FIG. 3), read-out: growth inhibition): 60%
- Mean proliferation ([2]; aprepitant 1 μM): 98.09
- Mean proliferation ([2]; aprepitant 3 μM): 94.71
- Mean proliferation ([2]; aprepitant 5 μM): 72.82
- Mean proliferation ([2]; aprepitant 10 μM): 59.95
- Mean proliferation ([2]; aprepitant 20 μM): 42.37
- Mean proliferation ([2]; aprepitant 30 μM): 30.66
- Mean proliferation ([2]; aprepitant 40 μM): 18.72
- Mean proliferation ([2]; aprepitant 50 μM): 4.05
- Mean proliferation ([2]; aprepitant 60 μM): 4.40
- proliferation compared to control ([2]; concentration of 5 μM, in most cell lines (FIG. 3)): 80%
- response to treatment versus EGFR+/ALK−/ROS1− and EGFR−/ALK+/ROS1− profiles ([2]; in vitro, Table 4 and FIG. 2): clearly improved response
- Mean proliferation ([3]; aprepitant 1 μM): 101.53
- Mean proliferation ([3]; aprepitant 3 μM): 99.73
- Mean proliferation ([3]; aprepitant 5 μM): 96.4
- Mean proliferation ([3]; aprepitant 10 μM): 89.14
- Mean proliferation ([3]; aprepitant 20 μM): 69.95
- Mean proliferation ([3]; aprepitant 30 μM): 54.9
- Mean proliferation ([3]; aprepitant 40 μM): 38.12
- Mean proliferation ([3]; aprepitant 50 μM): 24.82
- Mean proliferation ([3]; aprepitant 60 μM): 14.95
- Mean proliferation ([4]; aprepitant 1 mg/kg/day): 104
- Mean proliferation ([4]; aprepitant 3 mg/kg/day): 108
- Mean proliferation ([4]; aprepitant 5 mg/kg/day): 112
- Mean proliferation ([4]; aprepitant 8 mg/kg/day): 110
- Mean proliferation ([4]; aprepitant 10 mg/kg/day): 99
- Mean proliferation ([4]; aprepitant 20 mg/kg/day): 76
- Mean proliferation ([4]; aprepitant 30 mg/kg/day): 65
- Mean proliferation ([4]; aprepitant 40 mg/kg/day): 61
- Mean proliferation ([4]; aprepitant 50 mg/kg/day): 56
- Mean proliferation ([4]; aprepitant 60 mg/kg/day): 54
- Mean proliferation ([4]; aprepitant 70 mg/kg/day): 50
- Mean proliferation ([4]; aprepitant 80 mg/kg/day): 50
- triple negative human primary breast carcinoma proliferation in a xenograft model ([4]; dose-dependent fashion): reduces
- plasma trough level [5]: 2.65 µg/mL
- plasma trough level (equivalent) [5]: 5 µM
